These antisense oligonucleotides have a phosphorothioate backbone; sugars and methylation of C are not fully specified. Where only a bound is given, the exact number is not on record here.

Among the targets are PRKACA; WWP1; CHUK.
Holding throughout (conditions): ASO
Further: test concentration or dose not given here.

With AAACCACTTGTGGTTCTTGA, the remaining target (mRNA or protein) (fraction of control) with PRKACA came to 0.66.

AAATAACGGAAGTGAGCAAG registered a remaining target (mRNA or protein) (fraction of control) with WWP1 of 0.88.

As for AAATAGTGCCATGGCAATAA, the remaining target (mRNA or protein) (fraction of control) in the data set with WWP1 stood at 0.98.

With AAATATACACTTTGGATC, in the data set with CHUK, the remaining target (mRNA or protein) (fraction of control) is no less than 1.

As for AACAGTAGTACTAGTGCAAT, the remaining target (mRNA or protein) (fraction of control) with WWP1 was no less than 1.

In the case of AACATTGAAGCCGAATAGAG, in the data set with WWP1, the remaining target (mRNA or protein) (fraction of control) was no less than 1.

As for AACTTCAGGTCATGTGAAGT, the remaining target (mRNA or protein) (fraction of control) in the data set with WWP1 was no less than 1.

In the case of AAGCAACCCACTGAACATGT, the remaining target (mRNA or protein) (fraction of control) with PRKACA turned out to be 0.62.

In the data set with WWP1, AAGGTTGTGGTCTCTCCCAT gave a remaining target (mRNA or protein) (fraction of control) of no less than 1.

Sequence AAGTCTCCCCATCTTGAG showed a remaining target (mRNA or protein) (fraction of control) with CHUK of no less than 1.

Sequence AATTTACACAATCAGATA registered a remaining target (mRNA or protein) (fraction of control) with CHUK of no less than 1.

Turning to AATTTCCCAGCCTTCTGGCA, the remaining target (mRNA or protein) (fraction of control) in the data set with WWP1 was no less than 1.

For the sequence ACAGACAGACGTTCCCGA, the remaining target (mRNA or protein) (fraction of control) with CHUK was 0.85.

As to ACATTGCTGCCCTTTGTC, the remaining target (mRNA or protein) (fraction of control) with CHUK was 0.54.

With ACCCTCGCAGGATTGGCAGA, in the data set with PRKACA, the remaining target (mRNA or protein) (fraction of control) came to 0.47.

ACTAGAGTGCTTGTAGGTAC: the remaining target (mRNA or protein) (fraction of control) in the data set with WWP1 is no less than 1.

Sequence AGAACACATTGAGAGGCT came in with a remaining target (mRNA or protein) (fraction of control) with CHUK of 0.8.

On to AGAATGGTAAAGAGAAACCA, for which the remaining target (mRNA or protein) (fraction of control) in the data set with WWP1 was no less than 1.

The sequence AGCAATACATTCAAATAC showed a remaining target (mRNA or protein) (fraction of control) with CHUK of no less than 1.

For AGCACAAATGAGAAAGTGGG, the remaining target (mRNA or protein) (fraction of control) with PRKACA worked out at 0.93.

As for AGGATGTGTACTATCTTC, the remaining target (mRNA or protein) (fraction of control) with CHUK was 0.79.

With AGTATCAATAGATTCCAAAT, in the data set with WWP1, the remaining target (mRNA or protein) (fraction of control) was no less than 1.

On to AGTATCTGGCTTTCTTTA, for which the remaining target (mRNA or protein) (fraction of control) with CHUK is no less than 1.

In turn, ATACAGTTTTACTTTTAT displayed a remaining target (mRNA or protein) (fraction of control) in the data set with CHUK of no less than 1.

ATACATTGGGTTCAAAACTT came in with a remaining target (mRNA or protein) (fraction of control) in the data set with WWP1 of 0.92.

ATCATCAACTCTTCTTTCCC: the remaining target (mRNA or protein) (fraction of control) with WWP1 was 0.7.

In the data set with WWP1, ATCTGCAGACAATAGTTGTT had a remaining target (mRNA or protein) (fraction of control) of no less than 1.

In turn, ATCTTGGCTGCTTCAAAG gave a remaining target (mRNA or protein) (fraction of control) with CHUK of 0.6.

In the data set with WWP1, ATCTTTGTTCTCCTCAGTCA displayed a remaining target (mRNA or protein) (fraction of control) of 0.92.

The sequence ATGTCAACAGAAAAGTACAT registered a remaining target (mRNA or protein) (fraction of control) with WWP1 of no less than 1.

As to ATTCCAATTCTGCACTGGTA, the remaining target (mRNA or protein) (fraction of control) with WWP1 is no less than 1.

On to ATTCTTTCACGCTCTCCTGC, for which the remaining target (mRNA or protein) (fraction of control) in the data set with PRKACA was found to be 0.97.

Take ATTGATCTTTACATGACTAG: in the data set with WWP1, the remaining target (mRNA or protein) (fraction of control) was 0.83.

With ATTGGCATGGTTCAACTT, the remaining target (mRNA or protein) (fraction of control) with CHUK amounted to 0.69.

For the sequence CAAACTGATCCAAGTGGGCT, in the data set with PRKACA, the remaining target (mRNA or protein) (fraction of control) came out at 0.27.

For the sequence CAAGAGAGCGGGCAGAAC, the remaining target (mRNA or protein) (fraction of control) in the data set with CHUK is no less than 1.

In turn, CACACAGGTTGAATCGCCCC had a remaining target (mRNA or protein) (fraction of control) with PRKACA of 0.39.

CACCATAATCAAGTCCTTCT returned a remaining target (mRNA or protein) (fraction of control) in the data set with WWP1 of 0.52.

Sequence CAGGCAGCCCCTCCCCAGCA displayed a remaining target (mRNA or protein) (fraction of control) with PRKACA of 0.51.

CATAAGCAATTTGTGGACCA yielded a remaining target (mRNA or protein) (fraction of control) with WWP1 of no less than 1.

As for CATAGTGGATGGCCTTTT, in the data set with CHUK, the remaining target (mRNA or protein) (fraction of control) amounted to 0.66.

In turn, CATCGCGGCGGCGGCGGCCG registered a remaining target (mRNA or protein) (fraction of control) in the data set with PRKACA of 0.51.

The sequence CCAGCATCACCCGCCCGAAG returned a remaining target (mRNA or protein) (fraction of control) in the data set with PRKACA of 0.34.

CCCATCGCGGCGGCGGCGGC: the remaining target (mRNA or protein) (fraction of control) with PRKACA amounted to 0.53.

In turn, CCCTGCATGAACATGACA returned a remaining target (mRNA or protein) (fraction of control) with CHUK of 0.47.

For CCTGGTGGCAAAGGTCCATA, the remaining target (mRNA or protein) (fraction of control) with WWP1 is no less than 1.

In the case of CCTTGAACCCCGGGCCGTGG, in the data set with PRKACA, the remaining target (mRNA or protein) (fraction of control) was 0.44.

In the data set with PRKACA, CGCTGCTGGGAGGAAAGACT registered a remaining target (mRNA or protein) (fraction of control) of 0.48.

Consider CGGCGGCGGCGTTGCCCATC, for which the remaining target (mRNA or protein) (fraction of control) with PRKACA turned out to be 0.21.

In turn, CGGCGTTGCCCATCGCGGCG returned a remaining target (mRNA or protein) (fraction of control) with PRKACA of 0.47.

CTACTAAACCGAACTTCT gave a remaining target (mRNA or protein) (fraction of control) with CHUK of no less than 1.

CTCTCCAAGTCAAGCTGA gave a remaining target (mRNA or protein) (fraction of control) in the data set with CHUK of 0.49.

CTGAGATCAAAGTGTTCT: the remaining target (mRNA or protein) (fraction of control) in the data set with CHUK is no less than 1.

In the data set with CHUK, CTGAGGGTCCCAATTCAA showed a remaining target (mRNA or protein) (fraction of control) of 0.88.

For CTGTTGGAAGGAATCTTCAA, the remaining target (mRNA or protein) (fraction of control) with WWP1 is no less than 1.

Consider CTTAATTGCTATTTTGAG, for which the remaining target (mRNA or protein) (fraction of control) with CHUK is no less than 1.

As for CTTAGCTCTAGGCGACAA, in the data set with CHUK, the remaining target (mRNA or protein) (fraction of control) came out at 0.56.

With CTTCCTCATAGTCGTCAAAG, the remaining target (mRNA or protein) (fraction of control) with PRKACA amounted to 0.68.

These data come from the OligoGym collection.
